Results taken from US4795743A, “2'-deamino-2'-hydroxyistamycin Bo derivatives of low toxicity” (Zaidan Hojin Biseibutsu Kagaku Kenkyu Kai, priority 1986, dated 1989).
Values after ≈ are worked out from the molar mass of the structure shown. Like-named read-outs stand apart in the source and are kept apart here.

Experiments:
[1] = test system: Bacillus cereus ATCC 1-702; test: Antibacterial spectrum, standard serial dilution method; assay type: cell-based; settings: read-out: Minimum Growth Inhibitory Concentration
Serratia sp. SOU = test: as above; assay type: cell-based; settings: read-out: Minimum Growth Inhibitory Concentration
[2] = test system: Micrococcus flavus FDA 16; test: as above; assay type: cell-based; settings: read-out: Minimum Growth Inhibitory Concentration
Escherichia coli W677 = test: as above; assay type: cell-based; settings: read-out: Minimum Growth Inhibitory Concentration
[3] = test system: Escherichia coli K-12 ML1410 R81; test: as above; assay type: cell-based; settings: K12ML1410R81, 18 h, read-out: Minimum Growth Inhibitory Concentration
Salmonella typhi T-63 = test: as above; assay type: cell-based; settings: Salmonella enterica, 18 h, read-out: Minimum Growth Inhibitory Concentration
[4] = test system: Klebsiella pneumoniae 22 = 3038; test: as above; assay type: cell-based; settings: Klebsiella pneumoniae, 18 h, read-out: Minimum Growth Inhibitory Concentration
[5] = test system: Pseudomonas aeruguinosa 21-75; test: as above; assay type: cell-based, Pseudomonas aeruginosa; settings: 2175, Muller-Hinton medium, 37° C., 18 hours, read-out: Minimum Growth Inhibitory Concentration
[6] = test system: Pseudomonas aeruguinosa B-13; test: as above; assay type: cell-based, Pseudomonas aeruginosa; settings: B13, Muller-Hinton medium, 37° C., 18 hours, read-out: Minimum Growth Inhibitory Concentration
[7] = test system: Escherichia coli K-12 R388; test: as above; assay type: cell-based; settings: K12R388, 18 h, read-out: Minimum Growth Inhibitory Concentration
[8] = test system: Pseudomonas aeruguinosa A3; test: as above; assay type: cell-based, Pseudomonas aeruginosa; settings: read-out: Minimum Growth Inhibitory Concentration
[9] = test system: Bacillus subtilis PCI 219; test: as above; assay type: cell-based; settings: PCI219; Bacillus subtilis PCI 219; Muller-Hinton medium, 37° C., 18 hours; read-out: Minimum Growth Inhibitory Concentration
[10] = test system: Escherichia coli K-12 LA290 R56; test: as above; assay type: cell-based; settings: K12LA290R56, 18 h, read-out: Minimum Growth Inhibitory Concentration
Bacillus anthracis = test: microbe, parasite or virus in culture; assay type: cell-based; settings: 18 h, read-out: Minimum Growth Inhibitory Concentration
[11] = test system: Pseudomonas aeruguinosa GN315; test: Antibacterial spectrum, standard serial dilution method; assay type: cell-based, Pseudomonas aeruginosa; settings: read-out: Minimum Growth Inhibitory Concentration
[12] = test system: Staphylococcus aureus Ap 01; test: as above; assay type: cell-based; settings: AP01, 18 h, read-out: Minimum Growth Inhibitory Concentration
Serratia sp. 4 = test: as above; assay type: cell-based; settings: Muller-Hinton medium, 37° C., 18 hours, read-out: Minimum Growth Inhibitory Concentration
[13] = test system: Staphylococcus aureus Smith; test: as above; assay type: cell-based; settings: read-out: Minimum Growth Inhibitory Concentration
[14] = test system: Shibella flexneri 4b JS11811; test: as above; assay type: cell-based; settings: 18 h, read-out: Minimum Growth Inhibitory Concentration
[15] = test system: Pseudomonas maltophilia GN907; test: as above; assay type: cell-based; settings: Stenotrophomonas maltophilia, Muller-Hinton medium, 37° C., 18 hours, read-out: Minimum Growth Inhibitory Concentration
[16] = test system: Escherichia coli K-12 ML1410; test: as above; assay type: cell-based; settings: K12ML1410, 18 h, read-out: Minimum Growth Inhibitory Concentration
[17] = test system: Pseudomonas aeruguinosa 99; test: as above; assay type: cell-based, Pseudomonas aeruginosa; settings: Muller-Hinton medium, 37° C., 18 hours, read-out: Minimum Growth Inhibitory Concentration
[18] = test system: Pseudomonas aeruguinosa K-Ps 102; test: as above; assay type: cell-based, Pseudomonas aeruginosa; settings: read-out: Minimum Growth Inhibitory Concentration
Proteus rettgeri GN311 = test: as above; assay type: cell-based; settings: Providencia rettgeri, GN311, 18 h, read-out: Minimum Growth Inhibitory Concentration
[19] = test system: Staphylococcus epidermidis 109; test: as above; assay type: cell-based; settings: Staphylococcus epidermidis, 109, 18 h, read-out: Minimum Growth Inhibitory Concentration
[20] = test system: Shigella dysernteriae JS11910; test: as above; assay type: cell-based; settings: Muller-Hinton medium, 37° C., 18 hours, read-out: Minimum Growth Inhibitory Concentration
[21] = test system: Escherichia coli K-12 LA290 R55; test: as above; assay type: cell-based; settings: K12LA290R55, 18 h, read-out: Minimum Growth Inhibitory Concentration
Sarcina lutea PCI 1001 = test: as above; assay type: cell-based; settings: Micrococcus luteus, read-out: Minimum Growth Inhibitory Concentration
Escherichia coli JR225 = test: as above; assay type: cell-based; settings: JR225, 18 h, read-out: Minimum Growth Inhibitory Concentration
[22] = test system: Salmonella enteritidis 1891; test: as above; assay type: cell-based; settings: Salmonella enterica, Muller-Hinton medium, 37° C., 18 hours, read-out: Minimum Growth Inhibitory Concentration
[23] = test system: Pseudomonas aeruguinosa ROS 134/PU21; test: as above; assay type: cell-based, Pseudomonas aeruginosa; settings: ROS134/PU21, 18 h, read-out: Minimum Growth Inhibitory Concentration
Providencia sp. 2991 = test: as above; assay type: cell-based; settings: Providencia, SP.2991, 18 h, read-out: Minimum Growth Inhibitory Concentration
Escherichia coli K-12 R5 = test: as above; assay type: cell-based; settings: K12R5, 18 h, read-out: Minimum Growth Inhibitory Concentration

Row | SMILES | MIC [3] [µg/mL] | MIC (Salmonella typhi T-63) [µg/mL] | MIC [4] [µg/mL] | MIC [5] [µg/mL] | MIC [6] [µg/mL] | MIC [7] [µg/mL] | MIC [9] [µg/mL] | MIC [10] [µg/mL] | MIC (Bacillus anthracis) [µg/mL] | MIC [12] [µg/mL] | MIC (Serratia sp. 4) [µg/mL] | MIC [14] [µg/mL] | MIC [15] [µg/mL] | MIC [16] [µg/mL] | MIC [17] [µg/mL] | MIC (Proteus rettgeri GN311) [µg/mL] | MIC [19] [µg/mL] | MIC [20] [µg/mL] | MIC [21] [µg/mL] | MIC (Escherichia coli JR225) [µg/mL] | also measured
1 | CNCC1CCC(O)C(OC2C(N)CC(OC)C(N(C)C(=O)CN)C2O)O1 (stereo not drawn) [Compound No. 1, 2'-Deamino-2'-hydroxyistamycin B] | 6.25 (≈ 16 µM) | 1.56 (≈ 4 µM) | 12.5 (≈ 32 µM) | > 100 | > 100 | 3.13 (≈ 8.02 µM) | 3.13 (≈ 8.02 µM) | 3.13 (≈ 8.02 µM) | 12.5 (≈ 32 µM) | 6.25 (≈ 16 µM) | > 100 | 12.5 (≈ 32 µM) | > 100 | 6.25 (≈ 16 µM) | > 100 | 6.25 (≈ 16 µM) | 6.25 (≈ 16 µM) | 6.25 (≈ 16 µM) | 6.25 (≈ 16 µM) | 3.13 (≈ 8.02 µM) | MIC ([1]; ATCC1, Bacillus cereus ATCC 1-702, Muller-Hinton medium, 37° C., 18 hours): 50 µg/mL (≈ 128 µM); MIC (Serratia sp. SOU; Serratia, 18 h): 6.25 µg/mL (≈ 16 µM); MIC ([2]; FDA16, Micrococcus flavus FDA 16, Muller-Hinton medium, 37° C., 18 hours): 25 µg/mL (≈ 64 µM); MIC (Escherichia coli W677; W677, 18 h): 1.56 µg/mL (≈ 4 µM); MIC ([8]; Pseudomonas, A3, 18 h): 6.25 µg/mL (≈ 16 µM); MIC ([11]; Pseudomonas aeruguinosa GN315, Muller-Hinton medium, 37° C., 18 hours): 100 µg/mL (≈ 256 µM); MIC ([13]; S. aureus Smith, Muller-Hinton medium, 37° C., 18 hours): 3.13 µg/mL (≈ 8.02 µM); MIC ([18]; KPS102, Pseudomonas aeruguinosa K-Ps 102, Muller-Hinton medium, 37° C., 18 hours): > 100 µg/mL; MIC (Sarcina lutea PCI 1001; PCI1001, Sarcina lutea PCI 1001, Muller-Hinton medium, 37° C., 18 hours): 3.13 µg/mL (≈ 8.02 µM); MIC [22]: 6.25 µg/mL (≈ 16 µM); MIC [23]: > 100 µg/mL; MIC (Providencia sp. 2991): 12.5 µg/mL (≈ 32 µM); MIC (Escherichia coli K-12 R5): 3.13 µg/mL (≈ 8.02 µM)
2 | CNCC1CCC(O)C(OC2C(N)CC(O)C(N(C)C(=O)CN)C2O)O1 (stereo not drawn) [Compound No. 2, 2'-Deamino-2'-hydroxy-3-O-demethylistamycin B] | 6.25 (≈ 16.6 µM) | 0.78 (≈ 2.07 µM) | 6.25 (≈ 16.6 µM) | 25 (≈ 66.4 µM) | 25 (≈ 66.4 µM) | 3.13 (≈ 8.31 µM) | 3.13 (≈ 8.31 µM) | 3.13 (≈ 8.31 µM) | 1.56 (≈ 4.14 µM) | 6.25 (≈ 16.6 µM) | 25 (≈ 66.4 µM) | 12.5 (≈ 33.2 µM) | > 100 | 6.25 (≈ 16.6 µM) | 50 (≈ 133 µM) | 1.56 (≈ 4.14 µM) | 1.56 (≈ 4.14 µM) | 12.5 (≈ 33.2 µM) | 6.25 (≈ 16.6 µM) | 1.56 (≈ 4.14 µM) | MIC ([1]; Bacillus cereus, ATCC1, 18 h): 6.25 µg/mL (≈ 16.6 µM); MIC (Serratia sp. SOU; Serratia sp. SOU, Muller-Hinton medium, 37° C., 18 hours): 3.13 µg/mL (≈ 8.31 µM); MIC ([2]; Micrococcus flavus, FDA16, 18 h): 12.5 µg/mL (≈ 33.2 µM); MIC (Escherichia coli W677; E. coli W677, Muller-Hinton medium, 37° C., 18 hours): 3.13 µg/mL (≈ 8.31 µM); MIC ([8]; Pseudomonas aeruguinosa A3, Muller-Hinton medium, 37° C., 18 hours): 0.39 µg/mL (≈ 1.04 µM); MIC ([11]; Pseudomonas, GN315, 18 h): 12.5 µg/mL (≈ 33.2 µM); MIC ([13]; 18 h): 1.56 µg/mL (≈ 4.14 µM); MIC ([18]; Pseudomonas, KPS102, 18 h): 12.5 µg/mL (≈ 33.2 µM); MIC (Sarcina lutea PCI 1001; PCI1001, 18 h): 1.56 µg/mL (≈ 4.14 µM); MIC [22]: 12.5 µg/mL (≈ 33.2 µM); MIC [23]: 50 µg/mL (≈ 133 µM); MIC (Providencia sp. 2991): 6.25 µg/mL (≈ 16.6 µM); MIC (Escherichia coli K-12 R5): 3.13 µg/mL (≈ 8.31 µM)
